Laboratory results: patent publication US20230115252A1, “METHODS FOR TREATING NEUROMUSCULAR JUNCTION-RELATED DISEASES” (NSERM (Institut National de la Sante et de la Recherche …, priority 2014, published 2023)

Key:
[1] = tested on: MuSKΔCRD primary myotubes; assay: AChR clustering in MuSKΔCRD primary myotubes; assay type: cell-based, mice; settings: 16 h
Protocol: (§1) Muscle cells were isolated from P7-P10 hind limb Tibialis Anterior (TA) and Gastrocnemius muscles from MuSKΔCRD or WT mice. Briefly, muscle tissues were excised, separated from connective tissue, minced in dissecting medium (DMEM-F12 medium containing 2 mM glutamine, 2% penicillin/streptomycin (500 U), 2% Fungizone) and dissociated in dissecting medium containing 0.2% type I collagenase (Gibco) for 90 min at 37° C. in water bath. Cells were centrifugated, filtered and resuspended in proliferating medium (dissecting medium supplemented with 20% horse serum and 2% Ultroser G, Pall). After overnight pre-plating, cells were expanded in Matrigel (Corning) coated dishes for 3 to 5 days and differentiated in differentiating medium (dissecting medium supplemented with 2% horse serum) for 5 days. When indicated, myotubes were treated with recombinant Agrin (0.4 μg/ml, R&D system), Wnt11 (10 ng/ml, R&D system) or LiCl (2.5 mM, Sigma) for 16 h.
All images were collected on a microscope (model BX61; Olympus) equipped with a Fast 1394 Digital CCD FireWire camera (model Retiga 2000R; Qimaging) and a 20× objective or on a confocal laser scanning microscope (Zeiss LSM-710) equipped with a 20× objective and 63× oil objective. Collected Z-stacks confocal images (5 to 20 stacks with 1 to 1.5 μm (20×) z-steps) and image capture were made using LSM Image Browser. The same laser power and parameter setting were applied to ensure fair comparison between WT and MuSKΔCRD muscles. […] For quantification of the AChR clusters number, volume and intensity, image stacks were quantified using the ImageJ (version 1.46m) plugin “3D object counter” (Bolte and Cordeliéres, 2006). […] At least 4 diaphragms or 50 isolated muscle fibers of each genotype were analyzed and quantified. To evaluate β-catenin translocation to subsynaptic nuclei in isolated muscle fibers, image stacks corresponding to nuclei were used for quantification using the ImageJ intensity plot profile measuring the intensity of β-catenin and Dapi fluorescence within the segmented line.

[2] = tested on: Wnt/β-catenin signaling in MuSKΔCRD primary myotubes; assay: β-catenin translocation to the nucleus in primary myotubes; assay type: cell-based, mice
Protocol: as §1

MuSKΔCRD embryos = assay: NMJ formation in E18.5 MuSKΔCRD embryos after intraperitoneal injections in pregnant mice (whole mount diaphragm); assay type: in vivo
Protocol: Diaphragm muscles were dissected and fixed (4% paraformaldehyde in PBS) for 1 h at room temperature and further fixed (1% formaldehyde in PBS) overnight at 4° C. Muscles were washed three times for 15 minutes in PBS, incubated for 15 minutes with 100 mM glycine in PBS and rinsed in PBS. Muscles were permeabilized (0.5% Triton X-100 in PBS) for 1 h and blocked for 4 hours in blocking buffer (3% BSA, 5% goat serum and 0.5% Triton X-100 in PBS). Muscles were incubated overnight at 4° C. with rabbit polyclonal antibodies against neurofilament and synaptophysin in blocking solution. After three 1-hour washes in PBS, muscles were incubated overnight at 4° C. with Alexa-488 goat anti-rabbit IgG and Alexa-594-conjugated-α-bungarotoxin (α-BGT) in blocking solution. After three 1-hour washes in PBS, muscles were flat-mounted in Vectashield (Vector Labs) mounting medium.
(§2) All images were collected on a microscope (model BX61; Olympus) equipped with a Fast 1394 Digital CCD FireWire camera (model Retiga 2000R; Qimaging) and a 20× objective or on a confocal laser scanning microscope (Zeiss LSM-710) equipped with a 20× objective and 63× oil objective. Collected Z-stacks confocal images (5 to 20 stacks with 1 to 1.5 μm (20×) z-steps) and image capture were made using LSM Image Browser. The same laser power and parameter setting were applied to ensure fair comparison between WT and MuSKΔCRD muscles. Multiple Tile Scanned images were taken to cover the size of the whole diaphragm. Confocal images presented are single-projected image derived from overlaying each set of stacks. For quantification of the AChR clusters number, volume and intensity, image stacks were quantified using the ImageJ (version 1.46m) plugin “3D object counter” (Bolte and Cordeliéres, 2006). The threshold intensity was set by visual inspection of AChR clusters, being the same between WT and MuSKΔCRD images. The endplate band width was defined by the distance between the two farthest AChR clusters from the main nerve trunk. Around 100 measurements regularly spaced and covering the entire diaphragm were taken. At least 4 diaphragms or 50 isolated muscle fibers of each genotype were analyzed and quantified. To evaluate β-catenin translocation to subsynaptic nuclei in isolated muscle fibers, image stacks corresponding to nuclei were used for quantification using the ImageJ intensity plot profile measuring the intensity of β-catenin and Dapi fluorescence within the segmented line.
(§3) E12 pregnant mice or P10 adult mice were intraperitoneally injected with LiCl (Sigma, 600 mM-10 μl/g body weight) or placebo NaCl solution (0,0009%-10 μl/g body weight). Daily injections were made from E12 to E18 or from P10 to P60. After embryos genotyping, E18.5 or P60 diaphragms of LiCl-treated MuSKΔCRD mice were analyzed and compared to WT or NaCl-treated MuSKΔCRD.

MuSKΔCRD mice [3] = assay: NMJ morphology in postnatal MuSKΔCRD mice injected P10 to P60 (isolated TA muscle fibers); assay type: in vivo
Protocol: (§4) Isolated muscle fibers were labeled with antibodies as for whole-mount immunostaining Incubation times were the following: 3 hours for blocking, overnight at 4° C. for incubation with primary or secondary antibodies.
as §2
E12 pregnant mice or P10 adult mice were intraperitoneally injected with LiCl (Sigma, 600 mM-10 μl/g body weight) or placebo NaCl solution (0,0009%-10 μl/g body weight). Daily injections were made from E12 to E18 or from P10 to P60. […]

[4] = tested on: Wnt/β-catenin signaling in MuSKΔCRD mice; assay: β-catenin translocation to subsynaptic nuclei in isolated TA muscle fibers of treated MuSKΔCRD mice; assay type: in vivo; settings: P40 TA muscle fibers, compared to NaCl-treated MuSKΔCRD
Protocol: as §4
All images were collected on a microscope (model BX61; Olympus) equipped with a Fast 1394 Digital CCD FireWire camera (model Retiga 2000R; Qimaging) and a 20× objective or on a confocal laser scanning microscope (Zeiss LSM-710) equipped with a 20× objective and 63× oil objective. Collected Z-stacks confocal images (5 to 20 stacks with 1 to 1.5 μm (20×) z-steps) and image capture were made using LSM Image Browser. The same laser power and parameter setting were applied to ensure fair comparison between WT and MuSKΔCRD muscles. Multiple Tile Scanned images were taken to cover the size of the whole diaphragm. […] For quantification of the AChR clusters number, volume and intensity, image stacks were quantified using the ImageJ (version 1.46m) plugin “3D object counter” (Bolte and Cordeliéres, 2006). […] At least 4 diaphragms or 50 isolated muscle fibers of each genotype were analyzed and quantified. To evaluate β-catenin translocation to subsynaptic nuclei in isolated muscle fibers, image stacks corresponding to nuclei were used for quantification using the ImageJ intensity plot profile measuring the intensity of β-catenin and Dapi fluorescence within the segmented line. […]

MuSKΔCRD mice [5] = assay: Rail-grip test and grip strength in treated MuSKΔCRD mice; assay type: in vivo; settings: compared to NaCl-treated MuSKΔCRD mice
Protocol: Animals were allowed to grasp a metal rail suspended in midair and their latency to release the rail was recorded. Each mouse (N=6 for each genotype) was subjected to five trials with at least 10 min rest period between tests.
The grip strength was measured using a grip force tensiometer (Bioseb) according to the TREAT-NMD guidelines. Forelimbs and hindlimbs traction strength were recorded according to the manufacter's instructions. Three measurements were performed per animal.
as §3

WT primary myotubes = assay: AChR clustering in WT primary myotubes; assay type: cell-based, mice; settings: Wnt11 10 ng/ml, 16 h
Protocol: as §1, with “When indicated, myotubes were treated with recombinant Agrin (0.4 μg/ml, R&D system), Wnt11 (10 ng/ml, R&D system) or LiCl (2.5 mM, Sigma) for 16 h.” left out
All images were collected on a microscope (model BX61; Olympus) equipped with a Fast 1394 Digital CCD FireWire camera (model Retiga 2000R; Qimaging) and a 20× objective or on a confocal laser scanning microscope (Zeiss LSM-710) equipped with a 20× objective and 63× oil objective. […] For quantification of the AChR clusters number, volume and intensity, image stacks were quantified using the ImageJ (version 1.46m) plugin “3D object counter” (Bolte and Cordeliéres, 2006). […] At least 4 diaphragms or 50 isolated muscle fibers of each genotype were analyzed and quantified. […]

[6] = E18.5, i.p. E12 to E18.5, vs NaCl-treated MuSKΔCRD
[7] = P40 TA, compared to NaCl-treated mice

[Cl-].[Li+] [LiCl, lithium chloride]
increase in the number of AChR clusters ([1]; LiCl 2.5 mM, MuSKΔCRD primary myotubes): 6 fold
β-catenin translocation to the nucleus ([2]; LiCl-treated compared to Wnt11-treated MuSKΔCRD myotubes): increased β-catenin translocation to the nucleus
reduction of number of bypassing neurites (MuSKΔCRD embryos; E18.5, compared to NaCl-treated embryos): 33%
reduction of length of primary nerve branches (MuSKΔCRD embryos; E18.5, i.p. E12 to E18.5): 35%
reduction of length of secondary nerve branches (MuSKΔCRD embryos; E18.5, i.p. E12 to E18.5): 28%
endplate band width reduction (MuSKΔCRD embryos; E18.5, i.p. E12 to E18.5, compared to NaCl-treated mutant embryos): 23%
gain in AChR clusters intensity (MuSKΔCRD embryos; [6]): 20%
gain in AChR clusters number (MuSKΔCRD embryos; [6]): 103%
gain in AChR clusters volume (MuSKΔCRD embryos; [6]): 186%
rescue of pre- and postsynaptic defects (MuSKΔCRD embryos; E18.5 MuSKΔCRD embryos): almost fully rescued both pre- and postsynaptic defects
size of NMJ structures (MuSKΔCRD mice [3]; P40 TA isolated muscle fibers, compared to NaCl-treated MuSKΔCRD): increased in size
decrease of number of AChRs fragments per NMJ (MuSKΔCRD mice [3]; [7]): 44%
increase of AChR cluster area (MuSKΔCRD mice [3]; [7]): 40%
increase of synaptophysin area (MuSKΔCRD mice [3]; [7]): 105%
β-catenin translocation to subsynaptic nuclei [4]: strong increase
fore limb strength (MuSKΔCRD mice [5]): significantly improved
hind limb strength (MuSKΔCRD mice [5]): significantly improved
latencies to fall from the rail grip (MuSKΔCRD mice [5]): significantly improved

agrin: recombinant Agrin (R&D system), nerve-secreted protein that binds LRP4 and activates MuSK
number of AChR clusters following agrin treatment ([1]; MuSKΔCRD compared to WT primary myotubes, agrin 0.4 μg/ml): No difference

B1: Wnt11: member of the Wnt family known to interact with MuSK CRD; recombinant, R&D system (protein, UniProt O96014 25-354, looked up)
Protein Wnt-11: IKWLALSKTPSALALNQTQHCKQLEGLVSAQVQLCRSNLELMHTVVHAAREVMKACRRAFADMRWNCSSIELAPNYLLDLERGTRESAFVYALSAAAISHAIARACTSGDLPGCSCGPVPGEPPGPGNRWGGCADNLSYGLLMGAKFSDAPMKVKKTGSQANKLMRLHNSEVGRQALRASLEMKCKCHGVSGSCSIRTCWKGLQELQDVAADLKTRYLSATKVVHRPMGTRKHLVPKDLDIRPVKDSELVYLQSSPDFCMKNEKVGSHGTQDRQCNKTSNGSDSCDLMCCGRGYNPYTDRVVERCHCKYHWCCYVTCRRCERTVERYVCK
increase in the number of AChR clusters (WT primary myotubes): 4.5 fold
decrease of Wnt11-induced number of AChR clusters ([1]; Wnt11-treated MuSKΔCRD primary myotubes, compared to Wnt11-treated WT, 10 ng/ml): 80%
β-catenin translocation to the nucleus ([2]; Wnt11-treated MuSKΔCRD compared to Wnt11-treated WT primary myotubes): strongly reduced
